US20190352358A1, “COMPOUNDS, COMPOSITIONS AND USES THEREOF FOR IMPROVEMENT OF BONE DISORDERS” (ALIZE PHARMA III SAS, priority 2017, published 2019)
Each block holds one molecule with its values, some of them ahead of it. Residues, ends and D or L forms follow the SMILES beside them. No end group written: not given here. *: point of attachment. Arachidoyl = CCCCCCCCCCCCCCCCCCCC(=O)*; Stearoyl = CCCCCCCCCCCCCCCCCC(=O)*; Palmitoyl = CCCCCCCCCCCCCCCC(=O)*; Myristoyl = CCCCCCCCCCCCCC(=O)*

How the values were obtained:
[1] = Pharmacokinetics in male Sprague Dawley rats after intravenous and subcutaneous injection (Example 10); assay type: in vivo; settings: 1 μmol net peptide/kg, rat; for exposure after administration by either dose route (in words): iv and sc
Procedure: The peptides were reconstituted in saline (0.9% NaCl). Three male Sprague Dawley rats were used per group. Intravenous doses were administered into a lateral tail vein at the dose of 1 μmol net peptide/kg. Subcutaneous doses were administered into the right flank of each animal, also at the dose of 1 μmol net peptide/kg. Following dosing, serial whole blood samples (ca. 0.25 mL) were collected from a lateral tail vein into K2EDTA treated containers. Following each blood sample collection, samples were placed into a cooling block at 4° C. Samples were collected prior to dosing then at 2, 5, 15 and 30 minutes then 1, 2, 4, 6 and 8 and 24 hours post dose for intravenous injection and at 15 and 30 minutes then 1, 2, 4, 6, 8 and 24 hours post dose for subcutaneous injection.
Blood samples were centrifuged at 10000×g for 2 minutes at 4° C. and resultant plasma aspirated off into clean fully, labelled tubes. Plasma samples were snap frozen following aspiration then stored at −80° C. Peptides were extracted and analyzed as described in Example 9. The limits of quantification of these methods were 0.001 nmol/mL for cyclic HBD1 (3-11) and HBD1 (3-11) and 0.003 nmol/mL for HBD1 (1-13). All values below these limits of quantification were considered as zero.

[2] = Pharmacokinetics of acylated analogs in male Sprague Dawley rats after subcutaneous injection (Example 11); assay type: in vivo; parameters: AUC(0-t): concentration or dose not given beside the values; settings: sc, rat; for AUC(0-t) / Cmax / Tmax: male, Sprague Dawley, plasma; for AUC(0-t) / Cmax / Tmax / Tlast (last time point with detectable peptide): Table 24
Procedure: The peptides were reconstituted in saline (0.9% NaCl). Three male Sprague Dawley rats (approximately 6 weeks of age) were used per group. Subcutaneous doses were administered into the right flank of each animal […]. Following dosing, serial whole blood samples (ca. 0.3 mL) were collected from retro-orbital sinus into K2EDTA treated containers. Following each blood sample collection, samples were placed into a cooling block at 4° C. Samples were collected prior to dosing then at 15 and 30 minutes then 1, 2, 4, 6, 8 and 24 hours post dose for subcutaneous injection. Blood samples were centrifuged at 3500×rpm for 10 minutes at 4° C. and resultant plasma aspirated off into clean fully, labelled tubes. Plasma samples were snap frozen following aspiration then stored at −80° C. The peptides were extracted with acetonitrile:water (75:25, v/v) and analyzed using developed LC-MS/MS methods as described in Example 9. The limits of detection of these methods are 0.003 nmol/mL for HBD1 (1-13) with palmitic acid at the N-terminus (C16:0), 0.0008 nmol/mL for HBD1 (3-11) with palmitic acid at the N-terminus (C16:0), 0.0070 nmol/mL for HBD1 (3-11) with stearic acid at the N-terminus (C18:0), and 0.0015 nmol/mL for HBD1 (3-11) with myristic acid at the N-terminus (C14:0), HBD1 (3-11) with arachidic acid at the N-terminus (C20:0), HBD1 (3-11) with palmitic diacid at the N-terminus (C16:0-diacid), HBD1 (3-11) with palmitic acid at the C-terminus (C16:0). All values below these limits of quantification were considered as zero.

[3] = Stability of HBD1 fragments in human plasma; assay type: in vitro ADME; settings: for Remaining parent peptide in human plasma 48 hours post spike / remaining at 24 h, 1 μg/mL / remaining at 48 h, 1 μg/mL / Remaining parent peptide in human plasma 24 hours post spike: spiked at 1 μg/mL, 37° C.; for stability in human plasma (in words): 24 and 48 hours incubation at 37° C.; for remaining at 24 h, 1 μg/mL / remaining at 48 h, 1 μg/mL: human, human K2EDTA plasma; for remaining at 24 h, 1 μg/mL: read-out: Remaining parent peptide in human plasma 24 hours post spike; for remaining at 48 h, 1 μg/mL: read-out: Remaining parent peptide in human plasma 48 hours post spike
Procedure: The peptides were spiked at 1 μg/mL (peptide backbone) into pre-warmed human K2EDTA plasma (at 37° C.) and incubated for up to 48 hours. Aliquots of plasma were extracted at specific time points (0, 24 and 48 hours post spike). Extraction was performed with acetonitrile:water (75:25, v/v) for HBD1 (1-13), HBD1 (1-13) with palmitic acid at the N-terminus (C16:0), HBD1 (3-11) with palmitic acid at the N-terminus (C16:0)) and HBD1 (3-11) with stearic acid at the N-terminus (C18:0) or with acetonitrile:water:formic acid (75:25:0.1, v/v/v) for HBD1 (3-11) and cyclic HBD1 (3-11). The peptides were analyzed using developed LC (C18 reverse phase column)—positive ion electrospray MS/MS methods specific to each peptide. The peak area at each time point was expressed as a percentage of the value obtained for the t=0 minutes time point.

[4] = tested on: MC-3T3 E1 clone 4 (CL4) osteoblast cells; experiment: Osteocalcin expression during in vitro osteoblast differentiation, acylated and cyclic analogs (Example 7); assay type: cell-based; settings: Table 18; test peptide 1 μg/L; 18-21 day interval
Procedure: Each acylated peptide was tested in a biologic assay measuring its ability to stimulate differentiation of osteoblast cells over a 18-21 day interval as assessed by the stimulation of osteocalcin protein synthesis. MC-3T3 E1 clone 4 (CL4) osteoblast cells were obtained from ATCC (Manassas, Va., USA). Cells were cultured in α-MEM containing 10% fetal bovine serum (FBS; Thermo Fisher Scientific, Pittsburgh, Pa., USA). After confluency, culture medium was changed to differentiation medium (DM), which contained 10% FBS plus 50 μg/mL ascorbic acid and 4 mM β-glycerol phosphate, with or without a test peptide (1 μg/L). Fresh DM, with or without test peptide, was applied every 72 hours. The cell monolayers were lysed in a modified radioimmunoprecipitation assay (RIPA) buffer. Total cellular protein in the lysates was determined using BCA (Thermo Fisher Scientific, Rockford, Ill., USA). Cell proteins are separated on SDS-PAGE gel and transferred on PVDF membrane for analysis. Osteocalcin detection was performed using anti-osteocalcin antibody at 1:200 dilution (Santa Cruz Biotechnology, Inc, Santa Cruz, Calif., USA) and visualized using enhanced chemiluminescence (Thermo Fisher Scientific, Rockford, Ill., USA).
In a separate experiment, the effect of cyclization was examined on of the HBD1 (3-11) peptide. The cyclic HBD1 (3-11) was synthetized and tested on the in vitro osteoblast differentiation assay.

[5] = male, Sprague Dawley, plasma, iv
[6] = male, Sprague Dawley, plasma, sc

Molecule: CCCCCCCCCCCCCCCC(=O)N[C@@H](Cc1c[nH]cn1)C(=O)N[C@@H](CC(C)C)C(=O)NCC(=O)N[C@@H](CC(C)C)C(=O)N[C@@H](CCC(=O)O)C(=O)N[C@@H](CCC(=O)O)C(=O)N1CCC[C@H]1C(=O)N[C@@H](CCCCN)C(=O)N[C@@H](CCCCN)C(=O)O [SEQ ID NO: 72, C16:0-HLGLEEPKK] (Palmitoyl-HLGLEEPKK-OH; C-terminus assumed)
bioavailability ([1]; male, Sprague Dawley, plasma, subcutaneous, sc vs iv, read-out: F (bioavailability)): 35%
AUC(0-t) [1, 5]: 4.46 µM·h
Cmax [1, 5]: 7890 nM
Tmax [1, 5]: 0.033 h
AUC(0-t) [1, 6]: 1.57 µM·h
Cmax [1, 6]: 410 nM
Tmax [1, 6]: 1 h

Molecule: CCCCCCCCCCCCCCCCCCCC(=O)N[C@@H](Cc1c[nH]cn1)C(=O)N[C@@H](CC(C)C)C(=O)NCC(=O)N[C@@H](CC(C)C)C(=O)N[C@@H](CCC(=O)O)C(=O)N[C@@H](CCC(=O)O)C(=O)N1CCC[C@H]1C(=O)N[C@@H](CCCCN)C(=O)N[C@@H](CCCCN)C(=O)O [SEQ ID NO: 74, C20:0-HLGLEEPKK] (Arachidoyl-HLGLEEPKK-OH; C-terminus assumed)
peptide exposure compared among acylated peptides (in words) [2]: lower exposure than HBD1 (3-11) with stearic acid at the N-terminus (C18:0)

Molecule: CCCCCCCCCCCCCCCC(=O)N[C@@H](CCCCN)C(=O)N[C@@H](Cc1c[nH]cn1)C(=O)N[C@@H](Cc1c[nH]cn1)C(=O)N[C@@H](CC(C)C)C(=O)NCC(=O)N[C@@H](CC(C)C)C(=O)N[C@@H](CCC(=O)O)C(=O)N[C@@H](CCC(=O)O)C(=O)N1CCC[C@H]1C(=O)N[C@@H](CCCCN)C(=O)N[C@@H](CCCCN)C(=O)N[C@@H](CC(C)C)C(=O)N[C@@H](CCCNC(=N)N)C(=O)O [SEQ ID NO: 78, C16:0-KHHLGLEEPKKLR] (Palmitoyl-KHHLGLEEPKKLR-OH; C-terminus assumed)
Remaining parent peptide in human plasma 48 hours post spike [3]: 52%

Molecule: CCCCCCCCCCCCCCCC(=O)N[C@@H](Cc1c[nH]cn1)C(=O)N[C@@H](Cc1c[nH]cn1)C(=O)N[C@@H](CC(C)C)C(=O)NCC(=O)N[C@@H](CC(C)C)C(=O)N[C@@H](CCC(=O)O)C(=O)N[C@@H](CCC(=O)O)C(=O)N1CCC[C@H]1C(=O)N[C@@H](CCCCN)C(=O)N[C@@H](CCCCN)C(=O)O [compound 68] (Palmitoyl-HHLGLEEPKK-OH; C-terminus assumed)
Fold increase vs DM ± SE [4]: 2.52 ± 0.52 fold

Molecule: CCCCCCCCCCCCCCCCCC(=O)N[C@@H](Cc1c[nH]cn1)C(=O)N[C@@H](Cc1c[nH]cn1)C(=O)N[C@@H](CC(C)C)C(=O)NCC(=O)N[C@@H](CC(C)C)C(=O)N[C@@H](CCC(=O)O)C(=O)N[C@@H](CCC(=O)O)C(=O)N1CCC[C@H]1C(=O)N[C@@H](CCCCN)C(=O)N[C@@H](CCCCN)C(=O)O [compound 69] (Stearoyl-HHLGLEEPKK-OH; C-terminus assumed)
Fold increase vs DM ± SE [4]: 2.48 ± 0.27 fold

Molecule: CCCCCCCCCCCCCCCCCCCC(=O)N[C@@H](Cc1c[nH]cn1)C(=O)N[C@@H](Cc1c[nH]cn1)C(=O)N[C@@H](CC(C)C)C(=O)NCC(=O)N[C@@H](CC(C)C)C(=O)N[C@@H](CCC(=O)O)C(=O)N[C@@H](CCC(=O)O)C(=O)N1CCC[C@H]1C(=O)N[C@@H](CCCCN)C(=O)N[C@@H](CCCCN)C(=O)O [compound 70] (Arachidoyl-HHLGLEEPKK-OH; C-terminus assumed)
Fold increase vs DM ± SE [4]: 2.11 ± 0.11 fold

Molecule: HLGLEEPKK [SEQ ID NO: 10, HLGLEEPKK]
stability in human plasma (in words) [3]: very stable
Remaining parent peptide in human plasma 24 hours post spike [3]: 92%
Remaining parent peptide in human plasma 48 hours post spike [3]: 87%
exposure after administration by either dose route (in words) [1]: no quantifiable exposure

Molecule: KHHLGLEEPKKLR [SEQ ID NO: 1, KHHLGLEEPKKLR, reference compound]
stability in human plasma (in words) [3]: markedly degraded
Remaining parent peptide in human plasma 24 hours post spike [3]: 29%
Remaining parent peptide in human plasma 48 hours post spike [3]: 18%
exposure after administration by either dose route (in words) [1]: no quantifiable exposure

Now from value to molecule, other results behind:

AUC(0-t) [2]: 1.11 µM·h
Cmax [2]: 240 nM
Tmax [2]: 1 h
Tlast (last time point with detectable peptide) [2]: 6 h
Molecule: CCCCCCCCCCCCCC(=O)N[C@@H](Cc1c[nH]cn1)C(=O)N[C@@H](CC(C)C)C(=O)NCC(=O)N[C@@H](CC(C)C)C(=O)N[C@@H](CCC(=O)O)C(=O)N[C@@H](CCC(=O)O)C(=O)N1CCC[C@H]1C(=O)N[C@@H](CCCCN)C(=O)N[C@@H](CCCCN)C(=O)O [compound 71] (Myristoyl-HLGLEEPKK-OH; C-terminus assumed)
Fold increase vs DM ± SE [4]: 1.98 ± 0.22 fold

AUC(0-t) [2]: 1.34 µM·h
Cmax [2]: 350 nM
Tmax [2]: 1 h
Tlast (last time point with detectable peptide) [2]: 8 h
stability in human plasma (in words) [3]: similar
remaining at 24 h, 1 μg/mL [3]: 94%
remaining at 48 h, 1 μg/mL [3]: 87%
Molecule: CCCCCCCCCCCCCCCC(=O)N[C@@H](Cc1c[nH]cn1)C(=O)N[C@@H](CC(C)C)C(=O)NCC(=O)N[C@@H](CC(C)C)C(=O)N[C@@H](CCC(=O)O)C(=O)N[C@@H](CCC(=O)O)C(=O)N1CCC[C@H]1C(=O)N[C@@H](CCCCN)C(=O)N[C@@H](CCCCN)C(=O)O [compound 72] (Palmitoyl-HLGLEEPKK-OH)

stability in human plasma (in words) [3]: similar
remaining at 24 h, 1 μg/mL [3]: 98%
remaining at 48 h, 1 μg/mL [3]: 95%
Molecule: CC(C)C[C@@H]1NC(=O)CNC(=O)[C@H](CC(C)C)NC(=O)[C@H](Cc2c[nH]cn2)NC(=O)[C@H](CCCCN)NC(=O)[C@H](CCCCN)NC(=O)[C@@H]2CCCN2C(=O)[C@H](CCC(=O)O)NC(=O)[C@H](CCC(=O)O)NC1=O [compound 77] (cyclo(EEPKKHLGL))

AUC(0-t) [2]: 0.01 µM·h
Cmax [2]: 10 nM
Tmax [2]: 6 h
Tlast (last time point with detectable peptide) [2]: 8 h
remaining at 24 h, 1 μg/mL [3]: 58%
remaining at 48 h, 1 μg/mL [3]: 52%
Molecule: CCCCCCCCCCCCCCCC(=O)N[C@@H](CCCCN)C(=O)N[C@@H](Cc1c[nH]cn1)C(=O)N[C@@H](Cc1c[nH]cn1)C(=O)N[C@@H](CC(C)C)C(=O)NCC(=O)N[C@@H](CC(C)C)C(=O)N[C@@H](CCC(=O)O)C(=O)N[C@@H](CCC(=O)O)C(=O)N1CCC[C@H]1C(=O)N[C@@H](CCCCN)C(=O)N[C@@H](CCCCN)C(=O)N[C@@H](CC(C)C)C(=O)N[C@@H](CCCNC(=N)N)C(=O)O [compound 78] (Palmitoyl-KHHLGLEEPKKLR-OH)

remaining at 24 h, 1 μg/mL [3]: 92%
remaining at 48 h, 1 μg/mL [3]: 87%
Molecule: HLGLEEPKK [compound 10]

remaining at 24 h, 1 μg/mL [3]: 29%
remaining at 48 h, 1 μg/mL [3]: 18%
Molecule: KHHLGLEEPKKLR [compound 1]
